What was measured:
iHeps [1] = experiment: Gene expression profiles of treated iHeps (Luminex); type: cell-based, human
Description: Cells were lysed using RLT buffer (Qiagen) or Trizol (Invitrogen) and purified using the Mini-RNeasy kit (Qiagen). Gene expression was determined using Luminex analysis, as previously described. Briefly, total RNA was immobilized on a Qiagen turbo capture 384-well plate, and reverse-transcribed using oligodT priming A biotinylated FlexMap tag sequence unique to each gene of interest and a phosphorylated downstream probe were then added to resulting cDNAs to generate biotinylated FlexMap-tagged amplicons. Universal PCR was then performed for 35 cycles using a biotinylated T7 forward primer and T3 reverse primer in buffer with dNTPs and Taq polymerase. FlexMap microsphere beads conjugated with antitag oligonucleotides were then added and allowed to hybridize. Amplicons were captured by streptavidin-phyoerythrin, and 100 events per bead were analyzed for internal bead color and phyoerythrin reporter fluorescence on a Luminex FlexMap 3D analyzer. Data for replicate loadings, expressed in mean fluorescent intensity of at least 100 beads per sample, were scaled to the human transferrin gene and row-normalized for heat map representation using GeneE open software (Broad Institute).
(§1) The ability of compounds of the invention to affect the differentiation and maturation of iHeps was tested. Undifferentiated iPS cells were cultured on Matrigel, supported by primary mouse embryonic fibroblasts. Once confluent, iPS cells were transitioned to differentiation media, with sequential addition of growth factors (Activin A, BMP-4, bFGF, HGF, and OSM) to guide differentiation, first into endoderm, then into hepatic progenitor cells and finally into iHeps. Compound treatment started on day 21 post initiation of differentiation and acted over a period of 9 days. FH1 and FPH2 were used to treat iHeps. FH1 doubled albumin secretion during primary screening (FIG. 4A left) in a dose-responsive manner (FIG. 4A right).
Euclidian clustering analyses groups untreated cells with fetal hepatocytes and treated cells with mature hepatocytes (FIG. 4C left). Of particular interest are ABC transporters, CYP3A4 and GSTP1 expression levels. ABC transporters are known to mature after birth. ABCB11, also known as bile-salt export pump (BSEP), increased ˜3 fold and ˜4 fold in expression levels with FPH2 and FH1 treatment, respectively, compared to untreated iHeps. In contrast, GSTP1 expression, whose levels decrease with maturity, remained low upon FPH2 and FH1 treatment compared to untreated iHeps (FIG. 4C right).

PDGFRβ = PDGFRβ (Homo sapiens, UniProt P09619); experiment: Kinome analysis (panel of kinases); type: biochemical
Description: (§2) Selected compounds of the invention (FPH1 and FPH2; both at 1 μM concentration) were screened against a panel of kinases (FIG. 17).

ALK = ALK (Homo sapiens, UniProt Q9UM73); experiment: Kinome analysis (panel of kinases); type: biochemical
Description: as §2

CLK4 = CLK4 (Homo sapiens, UniProt Q9HAZ1); experiment: Kinome analysis (panel of kinases); type: biochemical
Description: as §2

CK1 γ2 = CK1 γ2 (Homo sapiens, UniProt P78368); experiment: Kinome analysis (panel of kinases); type: biochemical
Description: as §2

CLK1 = CLK1 (Homo sapiens, UniProt P49759); experiment: Kinome analysis (panel of kinases); type: biochemical
Description: as §2

FAK = FAK (Homo sapiens, UniProt Q05397); experiment: Kinome analysis (panel of kinases); type: biochemical
Description: as §2

RSK2 = RSK2 (Homo sapiens, UniProt P51812); experiment: Kinome analysis (panel of kinases); type: biochemical
Description: as §2

CaMK1 δ = CaMK1 δ (Homo sapiens, UniProt Q8IU85); experiment: Kinome analysis (panel of kinases); type: biochemical
Description: as §2

PI3KCγ = experiment: Kinome analysis (panel of kinases); type: biochemical; details: 1 μM
Description: as §2

CDK5 = CDK5 (Homo sapiens, UniProt Q00535); experiment: Kinome analysis (panel of kinases); type: biochemical
Description: as §2

NEK9 = NEK9 (Homo sapiens, UniProt Q8TD19); experiment: Kinome analysis (panel of kinases); type: biochemical
Description: as §2

EphB4 = EphB4 (Homo sapiens, UniProt P54760); experiment: Kinome analysis (panel of kinases); type: biochemical
Description: as §2

RSK4 = RSK4 (Homo sapiens, UniProt Q9UK32); experiment: Kinome analysis (panel of kinases); type: biochemical
Description: as §2

RSK3 = RSK3 (Homo sapiens, UniProt Q15349); experiment: Kinome analysis (panel of kinases); type: biochemical
Description: as §2

Ron = Ron (Homo sapiens, UniProt Q04912); experiment: Kinome analysis (panel of kinases); type: biochemical
Description: as §2

PI3KC2 α = PI3KC2 α (Homo sapiens, UniProt O00443); experiment: Kinome analysis (panel of kinases); type: biochemical
Description: as §2

FMS = FMS (Homo sapiens, UniProt P07333); experiment: Kinome analysis (panel of kinases); type: biochemical
Description: as §2

MAPKAPKV (PRAK) = MAPKAPKV (PRAK) (Homo sapiens, UniProt Q8IW41); experiment: Kinome analysis (panel of kinases); type: biochemical; details: read-out: MAPKAPKV (PRAK) inhibition
Description: as §2

DAPK1 = DAPK1 (Homo sapiens, UniProt P53355); experiment: Kinome analysis (panel of kinases); type: biochemical
Description: as §2

eEF-2K = eEF-2K (Homo sapiens, UniProt O00418); experiment: Kinome analysis (panel of kinases); type: biochemical
Description: as §2

NEK2 = NEK2 (Homo sapiens, UniProt P51955); experiment: Kinome analysis (panel of kinases); type: biochemical
Description: as §2

iHeps [2] = experiment: Differentiation of human iPS-derived hepatocytes (iHeps): morphology and immunofluorescent staining; type: cell-based
Description: as §1
To examine the effects of FH1 and FPH2 at the protein level, AFP, albumin and CYP3A4 levels weew visualized via immunofluorescent staining. […] This is in agreement with primary screening results as well as earlier morphological findings. Untreated cultures had islands that double stain for albumin and the fetal marker AFP, with very little presence of the mature marker CYP3A4.

FMS, sequence (P07333 20-972, species assumed): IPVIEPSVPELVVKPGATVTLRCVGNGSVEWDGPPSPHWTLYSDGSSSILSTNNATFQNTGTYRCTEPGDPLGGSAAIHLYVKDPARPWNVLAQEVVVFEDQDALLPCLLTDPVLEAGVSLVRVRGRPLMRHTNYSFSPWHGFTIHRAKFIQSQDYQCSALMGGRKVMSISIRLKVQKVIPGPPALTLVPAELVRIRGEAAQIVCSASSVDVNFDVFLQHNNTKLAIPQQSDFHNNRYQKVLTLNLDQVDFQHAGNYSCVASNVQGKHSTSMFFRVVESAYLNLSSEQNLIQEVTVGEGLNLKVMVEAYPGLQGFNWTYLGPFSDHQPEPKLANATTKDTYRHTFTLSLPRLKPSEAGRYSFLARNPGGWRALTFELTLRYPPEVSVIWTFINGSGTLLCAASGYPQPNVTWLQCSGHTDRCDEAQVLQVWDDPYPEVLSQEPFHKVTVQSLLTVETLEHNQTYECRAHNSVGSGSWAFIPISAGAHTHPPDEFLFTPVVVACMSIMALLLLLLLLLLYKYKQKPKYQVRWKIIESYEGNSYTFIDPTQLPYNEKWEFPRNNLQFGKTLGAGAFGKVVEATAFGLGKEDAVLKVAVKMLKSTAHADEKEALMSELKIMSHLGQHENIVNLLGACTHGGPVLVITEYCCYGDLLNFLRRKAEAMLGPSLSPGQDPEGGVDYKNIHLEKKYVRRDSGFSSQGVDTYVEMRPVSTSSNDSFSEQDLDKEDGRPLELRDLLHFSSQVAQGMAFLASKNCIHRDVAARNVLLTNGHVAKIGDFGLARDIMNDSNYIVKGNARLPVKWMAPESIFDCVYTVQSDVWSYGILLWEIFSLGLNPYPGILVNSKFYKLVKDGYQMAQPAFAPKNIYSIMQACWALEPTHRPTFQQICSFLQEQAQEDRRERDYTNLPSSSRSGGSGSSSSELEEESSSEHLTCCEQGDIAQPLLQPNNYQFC
ALK, sequence (Q9UM73 19-1620, species assumed): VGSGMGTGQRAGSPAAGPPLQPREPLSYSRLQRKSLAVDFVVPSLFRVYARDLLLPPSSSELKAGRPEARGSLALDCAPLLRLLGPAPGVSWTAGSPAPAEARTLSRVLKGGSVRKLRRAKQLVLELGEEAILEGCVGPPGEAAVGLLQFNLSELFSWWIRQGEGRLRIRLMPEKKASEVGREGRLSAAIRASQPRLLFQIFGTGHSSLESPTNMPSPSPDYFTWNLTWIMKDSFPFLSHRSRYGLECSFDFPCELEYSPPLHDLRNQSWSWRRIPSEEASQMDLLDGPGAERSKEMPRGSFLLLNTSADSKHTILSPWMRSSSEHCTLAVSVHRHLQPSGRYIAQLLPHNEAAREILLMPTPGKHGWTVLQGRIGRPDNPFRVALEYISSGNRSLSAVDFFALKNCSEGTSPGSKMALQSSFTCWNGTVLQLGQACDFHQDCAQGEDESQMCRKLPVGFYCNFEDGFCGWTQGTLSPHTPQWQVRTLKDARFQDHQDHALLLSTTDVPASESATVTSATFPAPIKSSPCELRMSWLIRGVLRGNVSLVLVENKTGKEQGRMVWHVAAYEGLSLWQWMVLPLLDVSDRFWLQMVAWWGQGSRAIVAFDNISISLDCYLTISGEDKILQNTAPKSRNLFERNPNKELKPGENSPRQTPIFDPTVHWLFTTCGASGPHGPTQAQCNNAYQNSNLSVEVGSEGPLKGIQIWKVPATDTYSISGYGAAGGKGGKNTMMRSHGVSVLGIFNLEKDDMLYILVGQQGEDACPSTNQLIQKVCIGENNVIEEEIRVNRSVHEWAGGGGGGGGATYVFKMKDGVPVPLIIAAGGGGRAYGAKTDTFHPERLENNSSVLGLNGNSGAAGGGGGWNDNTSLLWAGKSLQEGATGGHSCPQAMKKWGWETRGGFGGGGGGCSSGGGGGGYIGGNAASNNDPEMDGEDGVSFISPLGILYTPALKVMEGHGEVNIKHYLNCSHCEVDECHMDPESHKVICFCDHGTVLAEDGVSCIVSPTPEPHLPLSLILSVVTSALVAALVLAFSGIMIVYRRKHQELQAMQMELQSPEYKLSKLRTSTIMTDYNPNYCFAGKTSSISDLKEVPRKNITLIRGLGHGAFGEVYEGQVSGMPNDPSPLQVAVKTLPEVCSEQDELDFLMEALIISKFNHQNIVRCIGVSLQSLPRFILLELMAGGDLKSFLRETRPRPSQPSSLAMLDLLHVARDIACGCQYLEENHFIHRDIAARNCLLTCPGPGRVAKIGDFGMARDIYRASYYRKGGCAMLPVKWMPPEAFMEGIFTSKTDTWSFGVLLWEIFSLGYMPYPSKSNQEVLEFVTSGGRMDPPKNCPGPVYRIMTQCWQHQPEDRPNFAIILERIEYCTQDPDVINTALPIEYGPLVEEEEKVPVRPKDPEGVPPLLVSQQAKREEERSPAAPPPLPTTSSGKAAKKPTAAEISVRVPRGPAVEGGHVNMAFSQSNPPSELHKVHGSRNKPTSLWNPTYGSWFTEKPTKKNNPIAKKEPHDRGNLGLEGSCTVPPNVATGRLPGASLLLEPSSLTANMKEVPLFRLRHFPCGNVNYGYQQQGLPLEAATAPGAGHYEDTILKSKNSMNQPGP
CK1 γ2, sequence (P78368 whole entry): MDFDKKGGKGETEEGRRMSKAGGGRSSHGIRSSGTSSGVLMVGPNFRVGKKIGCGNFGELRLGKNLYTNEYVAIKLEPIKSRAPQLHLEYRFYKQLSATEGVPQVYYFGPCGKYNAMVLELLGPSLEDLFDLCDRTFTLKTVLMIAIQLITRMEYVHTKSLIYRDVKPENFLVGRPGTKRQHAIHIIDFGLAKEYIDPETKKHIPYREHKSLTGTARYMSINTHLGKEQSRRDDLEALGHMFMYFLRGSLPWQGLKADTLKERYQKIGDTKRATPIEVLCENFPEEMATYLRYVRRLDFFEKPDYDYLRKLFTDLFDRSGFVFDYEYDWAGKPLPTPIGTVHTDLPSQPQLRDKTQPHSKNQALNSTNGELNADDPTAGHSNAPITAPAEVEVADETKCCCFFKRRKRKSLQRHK
FAK, sequence (Q05397 whole entry, species assumed): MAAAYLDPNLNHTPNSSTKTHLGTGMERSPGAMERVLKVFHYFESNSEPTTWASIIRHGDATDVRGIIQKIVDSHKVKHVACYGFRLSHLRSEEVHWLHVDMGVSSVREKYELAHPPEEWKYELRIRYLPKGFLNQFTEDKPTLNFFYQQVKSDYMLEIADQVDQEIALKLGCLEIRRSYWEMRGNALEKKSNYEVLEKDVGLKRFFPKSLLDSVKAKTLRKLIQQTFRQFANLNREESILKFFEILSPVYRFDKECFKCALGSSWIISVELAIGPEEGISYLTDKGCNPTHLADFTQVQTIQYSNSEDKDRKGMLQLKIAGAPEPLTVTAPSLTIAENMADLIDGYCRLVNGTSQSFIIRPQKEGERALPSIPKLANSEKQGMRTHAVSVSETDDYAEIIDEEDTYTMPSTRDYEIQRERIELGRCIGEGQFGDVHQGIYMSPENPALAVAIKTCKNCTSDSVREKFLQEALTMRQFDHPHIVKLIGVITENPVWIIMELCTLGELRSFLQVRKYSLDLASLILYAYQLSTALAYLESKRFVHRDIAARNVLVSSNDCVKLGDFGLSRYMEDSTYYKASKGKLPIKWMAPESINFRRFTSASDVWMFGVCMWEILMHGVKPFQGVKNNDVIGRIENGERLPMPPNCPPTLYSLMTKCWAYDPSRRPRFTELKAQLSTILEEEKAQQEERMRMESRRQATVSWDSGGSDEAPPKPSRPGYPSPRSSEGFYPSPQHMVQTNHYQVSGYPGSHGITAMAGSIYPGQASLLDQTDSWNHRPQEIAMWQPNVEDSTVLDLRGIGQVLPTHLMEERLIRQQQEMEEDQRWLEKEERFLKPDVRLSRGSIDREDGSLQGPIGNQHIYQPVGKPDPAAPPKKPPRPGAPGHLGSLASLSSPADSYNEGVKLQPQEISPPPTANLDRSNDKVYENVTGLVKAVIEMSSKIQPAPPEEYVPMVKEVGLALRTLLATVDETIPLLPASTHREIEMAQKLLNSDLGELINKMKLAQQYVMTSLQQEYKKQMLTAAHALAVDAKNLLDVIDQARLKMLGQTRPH
RSK3, sequence (Q15349 whole entry, species assumed): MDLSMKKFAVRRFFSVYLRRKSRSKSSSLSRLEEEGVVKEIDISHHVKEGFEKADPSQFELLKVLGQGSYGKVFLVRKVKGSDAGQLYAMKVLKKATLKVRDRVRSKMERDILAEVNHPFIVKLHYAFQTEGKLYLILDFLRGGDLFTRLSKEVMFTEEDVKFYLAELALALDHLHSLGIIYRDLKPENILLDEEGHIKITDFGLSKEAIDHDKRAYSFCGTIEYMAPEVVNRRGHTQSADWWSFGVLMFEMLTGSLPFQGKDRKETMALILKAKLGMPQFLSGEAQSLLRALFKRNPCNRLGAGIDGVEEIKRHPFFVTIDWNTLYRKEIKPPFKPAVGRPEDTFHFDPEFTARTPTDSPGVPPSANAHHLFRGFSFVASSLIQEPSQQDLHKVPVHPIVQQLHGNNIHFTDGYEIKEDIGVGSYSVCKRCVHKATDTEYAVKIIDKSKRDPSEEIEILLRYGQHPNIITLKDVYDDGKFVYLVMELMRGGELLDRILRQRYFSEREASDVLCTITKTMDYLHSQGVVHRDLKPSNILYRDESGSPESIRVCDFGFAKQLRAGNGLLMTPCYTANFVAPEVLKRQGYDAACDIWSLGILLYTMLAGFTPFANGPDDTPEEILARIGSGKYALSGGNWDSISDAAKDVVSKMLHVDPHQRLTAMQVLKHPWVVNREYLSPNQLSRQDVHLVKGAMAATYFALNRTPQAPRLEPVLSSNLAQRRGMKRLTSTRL

Cc1ccc(Cl)cc1N(CC(=O)Nc1c(F)cccc1F)S(C)(=O)=O [FPH2, 2-(N-(5-chloro-2-methylphenyl)methylsulfonamido)-N-(2,6-difluorophenyl)acetamide]
ABCB11 (BSEP) expression level increase compared to untreated iHeps (iHeps [1]): ~3 fold | GSTP1 expression compared to untreated iHeps (iHeps [1]): remained low | inhibition at 1 µM (PDGFRβ): 6.7 to 18.4% | inhibition at 1 µM (ALK): 23% | remaining activity at 1 µM (ALK): 77% | inhibition at 1 µM (CLK4): 6.7 to 18.4% | inhibition at 1 µM (CK1 γ2): 6.7 to 18.4% | inhibition at 1 µM (CLK1): 6.7 to 18.4% | inhibition at 1 µM (FAK): 6.7 to 18.4% | inhibition at 1 µM (RSK2): 6.7 to 18.4% | inhibition at 1 µM (CaMK1 δ): 6.7 to 18.4% | PI3KCγ inhibition (PI3KCγ): 6.7-18.4% | inhibition at 1 µM (CDK5): 6.7 to 18.4% | inhibition at 1 µM (NEK9): 6.7 to 18.4% | inhibition at 1 µM (EphB4): 18.4 to 30% | inhibition at 1 µM (RSK4): 6.7 to 18.4% | inhibition at 1 µM (RSK3): 6.7 to 18.4% | inhibition at 1 µM (Ron): 6.7 to 18.4% | inhibition at 1 µM (PI3KC2 α): 6.7 to 18.4% | inhibition at 1 µM (FMS): 28% | remaining activity at 1 µM (FMS): 72% | inhibition at 1 µM (MAPKAPKV (PRAK)): 6.7 to 18.4% | inhibition at 1 µM (DAPK1): 6.7 to 18.4% | inhibition at 1 µM (eEF-2K): 6.7 to 18.4% | inhibition at 1 µM (NEK2): 6.7 to 18.4% | albumin staining (immunofluorescent) (iHeps [2]; treated iHeps): dramatic increases | hepatocyte phenotype of treated iHeps (iHeps [2]; treatment from day 21, 9 days): more mature hepatocyte phenotypes
